Measured values published in patent publication US4735953A, “Pharmaceutical preparation for learning stimulation and memory improvement” (priority 1986, dated 1988).

What was measured:
[1] = tested on: learning ability of mice in a shuttle chamber; assay: Learning ability of mice in a shuttle chamber; type: in vivo, mouse; details: mice
[2] = tested on: rabbit's brain hemispheres; assay: Amplitude of induced potential in brain hemispheres (acoustic irritation); type: in vivo; details: rabbits
Procedure: (§1) In the third series of experiments the effect of the preparation according to the present invention on the functional brain asymmetry was studied. The experiments were carried out on rabbits with electrodes implanted in the brain. The electrodes under nembutal narcosis (40 mg/kg) were implanted strictly symmetrically into the bearing zone of the temporal cortex of the right and left hemispheres on its lateral surface, whereas the indifferent electrode was secured to the nasal bones of a rabbit's skull. The acoustic irritation was applied through earphones. As the acoustic irritation a sound click caused by a square-shaped pulse from an electronic stimulator with a frequency of 0.1-0.2 Hz was used; the click intensity was adjusted within the range of from 5 to 80 Db. The amplification of the taken-off biopotentials was effected on an electroencephalograph; the induced potentials were obtained by means of an analyzer. 100 experiments on 20 animals were thus conducted; the interval between experiments on one animal was 7 days. The amplitude and form of the induced potential were determined. The asymmetry factor (Kas) was calculated by the formula: [formula] Ar --amplitude of the induced potential of the […] hemisphere, μV;
(§2) A1 --amplitude of the induced potential of the left hemisphere.
(§3) The test preparations were administered hypodermally in the form of 0.5-1.5% aqueous solutions 20 minutes before the beginning of the measurements.

[3] = tested on: learning ability of rats in a shuttle chamber; assay: Active avoidance learning in a shuttle chamber, rats; type: in vivo, rat; details: rats
Text: (§4) In these experiments rats are taught to avoid an electric shock by escaping into a next chamber communicating with the first chamber by means of a special opening--a door. An electric current is applied to the chamber door consisting of metal plates. A conditional irritator is a light signal together with a sound click. The learning series consisted of 50 combinations. The number of combinations necessary for the animal's learning to escape into another chamber in response to the conditional signal was determined. Five correct responses out of 6 where regarded as the proof of stability of the acquired knowledge and were denoted as a "learning criterion". After 7 days the educational procedure was repeated, and again the number of combinations necessary to acquire the "learning criterion" was determined. In the case of difference between the first and second readings the percentage of retention of the acquired knowledge was calculated.
(§5) In this experiment the effect of the preparation according to the present invention and prior art preparations was separately evaluated for the purpose of comparison on well-learning and on specially selected poorly learning rats. […] To the poorly learning rats the animals were assigned which reached no "learning criterion" in the teaching series of 50 combinations, or, in other words, a stable knowledge of active avoidance was not worked out in them. […] The preparation according to the present invention and the prior art comparison preparations were administered before the first teaching series or thereafter.
(§6) Also studied were the effects produced upon a single and repeated administration of the preparation according to the present invention for 14 days.

[4] = tested on: cerebral cortex of rabbits; assay: Asymmetry factor by induced potential in the hearing zone of the cerebral cortex; type: in vivo, rabbit
Procedure: as §1, §2, §3

[5] = tested on: learning ability of rats preliminarily sorted out for poor learning ability; assay: Active avoidance learning in a shuttle chamber, rats sorted out for poor learning ability; type: in vivo, rat; details: poorly learning rats
Text: as §4, §5, §6

[6] = hypodermally 1 mg/kg, 12 day (retention)
[7] = hypodermally 3 mg/kg, 12 day (retention)
[8] = hypodermally 0.03 mg/kg, 1st day
[9] = hypodermally 0.03 mg/kg, 12 day (retention)
[10] = hypodermally 0.1 mg/kg, 1st day
[11] = hypodermally 0.1 mg/kg, 12 day (retention)

Nc1ccncc1 [4-aminopyridine]
retention of the knowledge of active avoidance (in words) [1]: does not affect the retention of the knowledge of active avoidance | teaching (in words) [1]: facilitates teaching | % of avoidance reactions, group I ([1]; hypodermally 1 mg/kg, 1st day): 17% | % of avoidance reactions, group II ([1]; hypodermally 1 mg/kg, 1st day): 21% | % of avoidance reactions, group III ([1]; hypodermally 1 mg/kg, 1st day): 38% | % of avoidance reactions, group IV ([1]; hypodermally 1 mg/kg, 1st day): 51% | % of avoidance reactions, group V ([1]; hypodermally 1 mg/kg, 1st day): 55% | % of avoidance reactions, group VI ([1]; hypodermally 1 mg/kg, 1st day): 60% | % of avoidance reactions, group I [1, 6]: 48% | % of avoidance reactions, group II [1, 6]: 70% | % of avoidance reactions, group III [1, 6]: 72% | % of avoidance reactions, group IV [1, 6]: 71% | % of avoidance reactions, group V [1, 6]: 70% | % of avoidance reactions, group VI [1, 6]: 75% | % of avoidance reactions, group I ([1]; hypodermally 3 mg/kg, 1st day): 20% | % of avoidance reactions, group II ([1]; hypodermally 3 mg/kg, 1st day): 30% | % of avoidance reactions, group III ([1]; hypodermally 3 mg/kg, 1st day): 54% | % of avoidance reactions, group IV ([1]; hypodermally 3 mg/kg, 1st day): 61% | % of avoidance reactions, group V ([1]; hypodermally 3 mg/kg, 1st day): 79% | % of avoidance reactions, group VI ([1]; hypodermally 3 mg/kg, 1st day): 82% | % of avoidance reactions, group I [1, 7]: 46% | % of avoidance reactions, group II [1, 7]: 73% | % of avoidance reactions, group III [1, 7]: 74% | % of avoidance reactions, group IV [1, 7]: 74% | % of avoidance reactions, group V [1, 7]: 80% | % of avoidance reactions, group VI [1, 7]: 80% | amplitude of induced potentials (in words) [2]: increased amplitude of the induced potential | Change of amplitude of induced potential, % of the control, left hemisphere ([2]; hypodermally 2 mg/kg): 140% | Change of amplitude of induced potential, % of the control, right hemisphere ([2]; hypodermally 2 mg/kg): 175% | Mean value of amplitude of induced potential, % ([2]; hypodermally 2 mg/kg): 160% | Number of combinations to reach the "learning criterion" in II teaching series (after 7 days) ([3]; hypodermally 2 mg/kg): 7.4 ± 1.2 | Number of combinations to reach the "learning criterion" in the I teaching series ([3]; hypodermally 2 mg/kg): 17.8 ± 1.2 | Number of non-taught animals in the group ([3]; hypodermally 2 mg/kg): 0/20 | Percentage knowledge retention ([3]; hypodermally 2 mg/kg): 60% | asymmetry factor (in words) [4]: did not change or reduced the factor of asymmetry | Asymmetry factor, Preparation ([4]; hypodermally 2 mg/kg, control 0.26 ± 0.06): 0.12 ± 0.02 | % of knowledge retention ([5]; hypodermally 2 mg/kg): 40.9% | Number of combinations till appearance of "learning criterion", I teaching ([5]; hypodermally 2 mg/kg): 32.5 ± 2.8 | Number of combinations till appearance of "learning criterion", II-checking of retention of knowledge ([5]; hypodermally 2 mg/kg): 19.2 ± 1.7 | Number of untaught animals in the group ([5]; hypodermally 2 mg/kg): 11/20

CNC(=O)Oc1ccc2c(c1)[C@]1(C)CCN(C)[C@@H]1N2C [Physostigmine, physostigmine]
teaching of animals (in words) ([1]; 0.03 mg/kg): slightly improves | teaching of animals (in words) ([1]; 0.1 mg/kg): impairs teaching of animals | % of avoidance reactions, group I [1, 8]: 20% | % of avoidance reactions, group II [1, 8]: 21% | % of avoidance reactions, group III [1, 8]: 26% | % of avoidance reactions, group IV [1, 8]: 35% | % of avoidance reactions, group V [1, 8]: 49% | % of avoidance reactions, group VI [1, 8]: 57% | % of avoidance reactions, group I [1, 9]: 50% | % of avoidance reactions, group II [1, 9]: 80% | % of avoidance reactions, group III [1, 9]: 83% | % of avoidance reactions, group IV [1, 9]: 87% | % of avoidance reactions, group V [1, 9]: 90% | % of avoidance reactions, group VI [1, 9]: 89% | % of avoidance reactions, group I [1, 10]: 18% | % of avoidance reactions, group II [1, 10]: 4% | % of avoidance reactions, group III [1, 10]: 7% | % of avoidance reactions, group IV [1, 10]: 18% | % of avoidance reactions, group V [1, 10]: 23% | % of avoidance reactions, group VI [1, 10]: 38% | % of avoidance reactions, group I [1, 11]: 39% | % of avoidance reactions, group II [1, 11]: 60% | % of avoidance reactions, group III [1, 11]: 70% | % of avoidance reactions, group IV [1, 11]: 70% | % of avoidance reactions, group V [1, 11]: 71% | % of avoidance reactions, group VI [1, 11]: 70% | Number of combinations to reach the "learning criterion" in II teaching series (after 7 days) ([3]; hypodermally 0.04 mg/kg): 6.1 ± 0.9 | Number of combinations to reach the "learning criterion" in the I teaching series ([3]; hypodermally 0.04 mg/kg): 21.9 ± 2.5 | Number of non-taught animals in the group ([3]; hypodermally 0.04 mg/kg): 1/20 | Percentage knowledge retention ([3]; hypodermally 0.04 mg/kg): 72% | asymmetry factor (in words) [4]: did not change or reduced the factor of asymmetry | Asymmetry factor, Preparation ([4]; hypodermally 0.04 mg/kg, control 0.22 ± 0.01): 0.11 ± 0.01 | % of knowledge retention ([5]; hypodermally 0.04 mg/kg): 10% | Number of combinations till appearance of "learning criterion", I teaching ([5]; hypodermally 0.04 mg/kg): 46 ± 3.1 | Number of combinations till appearance of "learning criterion", II-checking of retention of knowledge ([5]; hypodermally 0.04 mg/kg): 31.4 ± 1.8 | Number of untaught animals in the group ([5]; hypodermally 0.04 mg/kg): 12/20
